System: leaves of monocotyledonous crop plants such as corn and dicotyledonous crop plants such as apples
Experiment: Leaf penetration of water-soluble leaf fertilisers such as urea
Assay type: in vivo
Details: urea 0.1 to 2% in spray liquor, in presence of 0.05 to 1% of one of the alkyl ether sulfates according to the invention; within a number of days
Excerpt: In the case of foliar application of urea (0.1 to 2% in the spray liqour) to leaves of monocotyledonous crop plants such as corn and also to dicotyledonous crop plants such as apples, the rate of foliar uptake was increased within a number of days by a factor of at least two in the presence of 0.05 to 1% of one of the alkyl ether sulfates according to the invention.

## NC(N)=O [urea]
  factor of increase of rate of foliar uptake: at least two

Source: patent US9215868B2, “Low-foam preparations for crop protection” (Bayer Intellectual Property GmbH, priority 2006, dated 2015)
